Assay results reported in patent US20070248705A1, “Agents for Activating the Transcription Factor Nrf2 and Foods Having Such Function” (KIRIN BEER KABUSHIKI KAISHA, priority 2004, published 2007).

What was measured:
[1] = system: Nrf2; assay: Nrf2 activation in ARE reporter assay system, RAW264.7; format: cell-based, mouse; conditions: RAW264.7, 5 μM, 24 hours
Experimental: To construct the reporter plasmid pGL3-mARE3A, a double-stranded oligo DNA with 3 repeats of mouse NQO1-derived ARE (antioxidant response element) to which Nrf2 is believed to bind was constructed and inserted into the MluI-NheI site of the firefly luciferase reporter vector pGL3-promoter vector (available from Promega).
The double-stranded oligo DNA containing AREs was prepared by chemically synthesizing two single-stranded oligo DNAs, 5 ′-[…] G-3′ (SEQ ID NO: 1) and 5′-[…]-3′(SEQ ID NO: 2), and annealing them. Further, DNA sequence analysis confirmed that the product obtained was the plasmid of interest. Next, a mouse macrophage cell line RAW264.7 (available from American Type Culture Collection) was seeded on a 12-well plate (4×10^5 cells/well), 0.8 ml of an RPMI1640 medium (Invitrogen) supplemented with 10% fetal bovine serum (HyClone) and penicillin-streptomycin (100 units/ml and 100 μg/ml, respectively; Sigma) was added, and the plate was incubated at 37° C. in an atmosphere of 5% CO2 overnight. […] The cells were broken using a Dual-Luciferase reporter assay system (Promega) and then firefly luciferase activity and renilla luciferase activity were measured using a luminometer (Luminous CT-9000D, Dia-Iatron). […]

[2] = system: glutathione S-transferase pi2 (GSTP2); assay: Expression of genes controlled by Nrf2 in RAW264.7: GSTP2; format: cell-based, mouse; conditions: RAW264.7, 25 μM, 20 hours
Experimental: (§1) A mouse macrophage cell line RAW264.7 was seeded on a φ60 mm dish (9×10^5 cells), 2 ml of a D-MEM medium (Invitrogen) supplemented with 10% fetal bovine serum (HyClone) and penicillin-streptomycin (100 units/ml and 100 μg/ml, respectively; Sigma) was added, and the dish was incubated at 37° C. in an atmosphere of 5% CO2 for 2 days. The medium was replaced with a fresh medium containing individual samples and incubation was continued for another 20 hours. Then, the total RNA was prepared using TRIzol (Invitrogen) and purified using a RNeasy Mini kit (Qiagen) and an RNase-free DNase set (Qiagen). Further, cDNA was synthesized from 5 μg of the purified total RNA using a Thermo Script RT-PCR system (Invitrogen), and the amount of mRNA expression of various genes was determined using a FastStart DNA Master SYBR Green I kit (Roche) and a Light Cycler (Roche).
(§2) The amount of expression of the various genes was corrected by the amount of expression of the housekeeping gene PO and calculated as a relative expression level (n=2, mean±standard deviation). […]

[3] = system: glutamate cysteine ligase modifier subunit (GCLM); assay: Expression of genes controlled by Nrf2 in RAW264.7: GCLM; format: cell-based, mouse; conditions: RAW264.7, 25 μM, 20 hours
Experimental: as §1, §2

[4] = system: mouse macrophage cell line RAW264.7; assay: Suppressive action on cell death by hydrogen peroxide; format: cell-based; conditions: RAW264.7, 25 μM, 2 hours
Experimental: A mouse macrophage cell line RAW264.7 (6×10^4 cells/well) was incubated on a 96-well plate in 100 μl of a D-MEM medium (Invitrogen) containing individual samples, 10% fetal bovine serum (HyClone), and penicillin-streptomycin (100 units/ml and 100 μg/ml, respectively; Sigma) at 37° C. in an atmosphere of 5% CO2 overnight. The samples added were isohumulone (IH(F)) and isohumulone (IcH(G)) at a concentration of 25 μM. Hydrogen peroxide (Wako Pure Chemical Industries) was added hereto at a final concentration of 0.8 or 1.0 mM and incubation was continued for another 2 hours. Then, adsorption at 440 nm was measured using a microplate reader (Power Wave 200, Bio-Tek Instruments) with a cell growth reagent WST-1 (Roche Diagnostics). The cell survival rate for each sample was calculated by setting the value without hydrogen peroxide as 100% (n=2, mean±standard variation). As a positive control, 15dPGJ2 (Cayman Chemical) was used.

## CC(C)=CCC(=O)C1(O)C(O)=C(C(=O)CC(C)C)C(=O)C1CC=C(C)C (centres unmarked) [IH (F), isohumulone]
[1]
  Nrf2 activation activity (relative luciferase activity): confirmed the activation
[2]
  expression of GSTP2: augmented the expression
[3]
  expression of GCLM: augmented the expression
[4]; hydrogen peroxide 0.8 mM
  cell death by hydrogen peroxide (cell survival rate): suppressed cell death
[4]; hydrogen peroxide 1.0 mM
  cell death by hydrogen peroxide (cell survival rate): suppressed cell death
